Test results taken from patent publication US9486471B2, “Combination therapy for the treatment of cancer” (McMaster University, priority 2012, dated 2016).
Counter-ions that a name gives are not always drawn. Like-named read-outs stand apart in the source and are kept apart here.

Experiments:
[1] = tested on: AML-OCI2 and AML-OCI3 cell lines; assay: Volumetric cell counting of AML cell lines treated with DR antagonists and agonists; format: cell-based, human; settings: 72 h, serum-free conditions
Procedure: Volumetric Cell Counting. The number of AML-OCI2 and AML-OCI3 cells present after 72 h treatment with DR antagonists (FIG. 16b) and agonist (FIG. 16c-d) were counted by measuring the number of events within a fixed volume following the grating strategy defined by forward scatter and side scatter clustering, 7AAD− and Hoechst+.
Due to the bioavailability of dopamine in fetal bovine serum (FBS) (Little et al., 2002), serum-free conditions were employed to assess the role of DRs in AML.

AML patient blast cells = assay: Methylcellulose colony-forming assay, AML patient blast-CFU; format: cell-based, human
Procedure: (§1) AML/HPSC Cell Culture. AML cell lines, namely, OCI-AML2 (M4), OCI-AML3 (M4), HL-60 (M2) and MV-4-11(M5) were cultured in RPMI (Gibco) supplemented with 5% heated-inactivated FBS (HyClone). For DR agonist studies with R(+)-7-Hydroxy-DPAT hydrobromide (Sigma), serum-free conditions were employed instead due to the prevalence of dopamine in FBS (Little et al., 2002). AML patient blasts were cultured in IMDM supplemented with 5% heated inactivated FBS (HyClone), 5 ng/mL IL3 (R&D systems), 5×10^−5 M β-mercaptoethanol (Sigma) and BIT (StemCell Technologies). HSC media contained IMDM supplemented with 1% BSA (Sigma), 100 ng/mL SCF (R&D systems), 100 ng/mL Flt-3L (R&D systems) and 20 ng/mL TPO (R&D systems). Patient HSPC and AML samples were treated with compound or DMSO-vehicle (0.1%) for 24 h prior to CFU plating or xenotransplantation studies.
(§2) Methylcellulose Colony-Forming Assay. AML patient or CB lin− cells were cultured 24 hours in the presence of compound or DMSO-vehicle (0.1%) control. AML cells were plated at 50 000 cells/mL in Methocult GF H4434 (Stem Cell Technologies). CB lin− cells were plated at 1000 cells/mL in Methocult GF H4434 (Stem Cell Technologies). Colonies were scored after 14 days of culture using standard morphological criteria.

[2] = tested on: v1H9-Oct4-GFP neoplastic hPSC; assay: Chemical screening of neoplastic hPSC reporter line (GFP / Hoechst, loss of pluripotency); format: cell-based, human; settings: for activity at 10 µM: read-out: Hoechst % residual activity (% RA); for hit in extended screen (loss of pluripotency): 2446 compound screen, reduced mean GFP intensity and cell count
Procedure: In Vitro Culture Platform for Normal and Neoplastic hPSCs. Chemical screens involved v1H9-Oct4-GFP cells seeded at 5,000 cells per well in mouse embryonic fibroblast conditioned media (MEFCM) supplemented with 8 ng/ml bFGF. 24 hours later the media was exchanged for MEFCM with compounds at 10 μM and 0.1% DMSO, 0.1% DMSO (−BMP4) or 100 ng/ml of BMP4 and 0.1% DMSO (+BMP4) for 48 hours before being exchanged with fresh media with compound for a further 24 h (total compound treatment time 72 h) prior to being fixed and prepared for automated imaging and plate reader analysis. Confluent H9 & fibroblast-derived iPSC were seeded at 10,000 cells per well in MEFCM supplemented with 8 ng/ml bFGF. 24 hours later the cells were treated with compounds at 10 μM and 0.1% DMSO, 0.1% DMSO (−BMP4) or 100 ng/ml of BMP4 and 0.1% DMSO (+BMP4). Fresh MEFCM supplemented with compounds was exchanged daily for 5 days. On day 5, hPSC's were fixed and prepared for automated imaging and plate reader analysis. See supplementary experimental procedures for further details.
Imaging Neoplastic hPSC. Cells were fixed in 2% paraformaldehyde and stained with 10 μg/mL Hoechst 33342 (Invitrogen) with a Combi Multidrop Dispenser (Thermo). For experiments that involved Oct4 immunocytochemistry, a monoclonal antibody for Oct4 (BD) was used along with an Alexa-Fluor-647 secondary (Invitrogen). Immunocytochemical staining was performed by a Janus automated liquid handler (Perkin Elmer). Images were acquired at 10× N.A with an Arrayscan HCS VTI Reader (Cellomics) by means of epi-fluorescence illumination and standard filter sets.
Image Analysis. Image analysis was performed using custom scripts in Acapella software (Perkin Elmer). Nuclear objects were segmented from the Hoechst signal. For neoplastic cell lines, object intensity analysis was performed on GFP positive cells only. For normal cell lines, the fraction of Alexa-Fluor-647-positive cells was quantified. Images and well-level data were stored and analysed in a Columbus Database (Perkin Elmer) and further data analysis, compounds registration and hit identification in ActivityBase (IDBS).
These Collections have been previously scrutinized in numerous other mammalian cell lines (Diallo et al., 2010; Shoemaker, 2006).

[3] = tested on: HL-60, MV4-11 and OCI-AML3 leukemic cell lines; assay: Normalized cell number of leukemic cell lines after 72 h incubation (Examples 1, 3); format: cell-based, human; settings: 10 μM
Procedure: All three lines are leukemic cell lines. […] Each condition had three replicates.
The dopamine receptor antagonist and phenothiazine-related compound chlorpromazine was also investigated for effects on the AML cell lines HL-60, MV4-11 and OCI-AML3. Testing was performed as set out in Example 1.

[4] = tested on: AML cell lines HL-60, OCI-AML2 and OCI-AML3
Procedure: All three lines are leukemic cell lines. HL-60 was derived from promyelocytic AML whereas MV 4-11 and OCI-AML3 are representative of AML. Each compound was incubated with the cells for 72 h. The control was DMSO (ie the vehicle used for the compound) for 72 h. Each condition had three replicates.
A series of dopamine receptor agonists, D3-antagonists, DR1 & 5-antagonists and multi-receptor antagonists were tested for cytotoxicity against three AML cell lines HL-60, OCI-AML2 and OCI-AML3. Testing was performed as set out in Example 1.

[5] = tested on: p53 and p21 in neoplastic hPSCs; assay: p53 and p21 accumulation in neoplastic hPSCs; format: cell-based, human; settings: 24 h; 10 μM etoposide, 10 μM thioridazine, BMP4
From the text: Antibodies. Antibodies used for immunocytochemistry were the following: Oct3/4 (BD Trunsduction Laboratories, cat#611203), Sox2 (R&D, cat#AF2018). To detect human hematopoietic cells, Pacific Blue-, PE-, APC- or FITC labeled anti-human CD45 was used (BD Biosciences). FITC anti-CD33, PE anti-CD13, FITC anti-CD41a, FITC anti-HLA DR, and PE anti-CD19 antibodies were obtained from BD Pharmingen. PE anti-CD14, PE anti-CD15 and PE anti-GlyA were acquired from Immunotech Beckman Coulter. To determine pluripotency, PE anti-SSEA3 (BD Biosciences) and PE- or AlexaFluor488 anti-Oct4 (BD Biosciences). Rabbit anti-human dopamine receptor antibodies; DRD1 (Cat#324390), DRD2 (Cat#324393), DRD3 (Cat#324402), DRD4 (Cat#324405) and DRD5 (Cat#324408) were sourced from EMD Chemical. Anti-rabbit Alexa-Fluor-488 (Molecular Probes) was used as the secondary antibody. Primary anti-p53 (Cat#2527) and anti-p21 (Cat#2947) rabbit IgG sourced from Cell Signaling Technology were used to stain fixed and permeabilized cells. Anti-rabbit alexa-Fluor-546 (Molecular Probes) was used as the secondary antibody.

[6] = tested on: neoplastic hPSCs (v1H9-Oct4-GFP); assay: Flow cytometry of Oct4 in neoplastic hPSCs; format: cell-based, human
[7] = tested on: AML LSCs (CD45+CD33+ blast engraftment); assay: Xenotransplantation of compound-treated AML cells into NSG mice; format: in vivo; settings: 10 μM, 24 h ex vivo treatment
Procedure: Xenotransplantation Assays. NOD.Cg-Prkdc^scid II2rg^tm1Wjl/SzJ adult mice (NSG) were sub-lethally irradiated with 315 rads 24 hours prior transplantation. 0.8-1.0×10^7 AML MNCs or 1.5-1.8×10^5 CB lin-hematopoietic cells treated with compound or DMSO-vehicle for 24 h were injected via tail vein (IV). After 6-10 weeks, animals were culled, and the BM and spleen were analyzed for the presence of human cells by flow cytometry (LSRII, BD) and data was analyzed using FlowJo software (Tree Star Inc). For secondary HSPC transplants, equal number of engrafted human cells from CB lin− transplants were injected IV in adult irradiated NSG mice as described for primary transplants.
To delineate whether the inhibition of AML-blasts detected in vitro was due to the compounds affecting the neoplastic stem cell compartment, xenotransplantation studies (Dick, 2008) that functionally define LSCs and hematopoietic stem cells (HSCs) were conducted (FIG. 12).

[8] = tested on: hematopoietic stem and progenitor cells (HSPC, CB lin-); assay: Methylcellulose colony-forming assay, HSPC (CB lin-)
Procedure: as §1, §2

[9] = Homo sapiens, 10 μM, 590 compound screen

Br.CCCN(CCC)[C@@H]1CCc2ccc(O)cc2C1 [7OH-DPAT, R(+)-7-Hydroxy-DPAT hydrobromide]
number of AML cells [1]: increased the number of AML cells

Nc1ccn([C@@H]2O[C@H](CO)[C@@H](O)[C@@H]2O)c(=O)n1 [AraC, Arabinofuranosyl Cytidine]
effective concentration (ECArac) (AML patient blast cells; concentration that reduced AML-blast-CFU while retaining HSPC function, single drug): 100 nM

Oc1cc2c(cc1O)[C@@H](c1ccccc1)CNCC2 [SKF38393, (R)-(+)-SKF-38393 hydrochloride]
number of AML cells [1]: significant reduction

Cn1cnc([N+](=O)[O-])c1Sc1ncnc2nc[nH]c12 [azathioprine]
activity at 10 µM [2, 9]: > 30%

CN(C)CCCN1c2ccccc2Sc2ccc(Cl)cc21 [chlorpromazine, Chlorpromazine hydrochloride]
normalized cell number / toxicity [3]: toxic
cytotoxicity of AML cell lines [4]: significant effect
cell count ([4]; 72 h, relative to control): eradicate the AML cell lines
number of AML cells [1]: reduced the number of AML cells

CN1CCN(C2=Nc3cc(Cl)ccc3Nc3ccccc32)CC1 [clozapine, Clozapine]
cytotoxicity of AML cell lines [4]: significant effect

COc1cc([C@@H]2c3cc4c(cc3[C@@H](O[C@@H]3O[C@@H]5CO[C@@H](C)O[C@H]5[C@H](O)[C@H]3O)[C@H]3COC(=O)[C@H]23)OCO4)cc(OC)c1O [etoposide]
accumulation of cell stress marker p53 [5]: high levels
accumulation of p21 [5]: high levels

OCCN1CCN(CCCN2c3ccccc3Sc3ccc(C(F)(F)F)cc32)CC1 [fluphenazine]
hit in extended screen (loss of pluripotency) [2]: hits

CNC1CC(c2ccc(Cl)c(Cl)c2)c2ccccc21 (stereo not shown) [indatraline]
activity at 10 µM ([2]; Homo sapiens): > 30%

OC(c1cc(C(F)(F)F)nc2c(C(F)(F)F)cccc12)C1CCCCN1 (stereo not shown) [mefloquine]
activity at 10 µM [2, 9]: > 30%
EC50 ([2]; Homo sapiens, dose response, v1H9-Oct4-GFP, read-out: EC50 (reduction in GFP intensity)): < 10 µM
cell number [6]: reductions
levels of Oct4 [6]: reductions
AML-blast CFU formation (AML patient blast cells; dose not stated in the sentence (0.1, 1, 10 μM tested)): reduced
leukemic disease-initiating AML LSC capacity [7]: ineffective

CN1CCN(CCCN2c3ccccc3Sc3ccc(Cl)cc32)CC1 [prochlorperazine]
hit in extended screen (loss of pluripotency) [2]: hits

CC[C@@H](C(=O)[C@@H](C)[C@@H](O)[C@H](C)[C@@H]1O[C@@H]([C@@H](CC)C(=O)O)CC[C@@H]1C)[C@H]1O[C@]2(C=C[C@@H](O)[C@]3(CC[C@@](C)([C@H]4CC[C@](O)(CC)[C@H](C)O4)O3)O2)[C@H](C)C[C@@H]1C [salinomycin]
HSPC CFU potential [8]: reduced
AML-blast CFU potential (AML patient blast cells; 1 μM): reduced
AML-blast CFU potential (AML patient blast cells; 10 μM): reduced

B1: BMP4: differentiation control, 100 ng/ml of BMP4 (protein, UniProt P12644 293-408, looked up)
Bone morphogenetic protein 4: SPKHHSQRARKKNKNCRRHSLYVDFSDVGWNDWIVAPPGYQAFYCHGDCPFPLADHLNSTNHAIVQTLVNSVNSSIPKACCVPTELSAISMLYLDEYDKVVLKNYQEMVVEGCGCR
accumulation of cell stress marker p53 [5]: no accumulation
accumulation of p21 [5]: no accumulation
